Measurements: US20240027453A1, “METHOD FOR DETECTION AND QUANTITATIVE MONITORING OF INFECTIONS WITH HERPESVIRUSES” (The Trustees of Princeton University, priority 2020, published 2024)
Where two headings read alike, the source gives them in different places.

Test system: HCMV
Assay type: cell-based
Conditions: FIG. 7A
Outline: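 Viral protein levels come from parallel reaction monitoring on a Q Exactive HF: trypsin digests of infected-cell lysates, quantified as summed transition areas, normalized to host control peptides, averaged across peptides per protein. Cells were MRC5 fibroblasts, infected at MOI 3 (HSV-1 or HCMV) after 12 h compound pretreatment, with re-dosing every 24 h.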
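Throughout, for TRM2 (P16792) protein level: each peptide scaled to its average across all runs.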
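Throughout, for UL29 (P16764) protein level: each peptide scaled to its average across all runs.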
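Throughout, for UL31 (P16848) protein level: each peptide scaled to its average across all runs.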
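Throughout, for UL88 (P16731) protein level: each peptide scaled to its average across all runs.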

SMILES: Oc1ccc(C=Cc2cc(O)cc(O)c2)cc1 [Resveratrol]
- UL122 (P19893) protein level (timepoint 48, IE): 0.07155
- UL123 (P13202) protein level (timepoint 48, IE): 0.9494
- CVC1 (P16799) protein level (timepoint 48, L): 0.3339
- GO (P16750) protein level (timepoint 48, L): 0.02075
- IR11 (P16809) protein level (timepoint 48, L): 0.3219
- MCP (P16729) protein level (timepoint 48, L): 0.008603
- SCP (Q7M6N6) protein level (timepoint 48, L): 0.008886
- TRM2 (P16792) protein level (timepoint 48, L): 0.03458
- UL22A (P16845) protein level (timepoint 48, L): 0.2188
- UL25 (P16761) protein level (timepoint 48, L): 0.07603
- UL29 (P16764) protein level (timepoint 48, L): 0.5648
- UL30 (P16765) protein level (timepoint 48, L): 0.14
- UL31 (P16848) protein level (timepoint 48, L): 0.3217
- UL43 (P16781) protein level (timepoint 48, L): 0.06887
- UL52 (P16793) protein level (timepoint 48, L): 0.09774
- UL80 (P16753) protein level (timepoint 48, L): 0.04182
- UL82 (P06726) protein level (timepoint 48, L): 0.2191
- UL88 (P16731) protein level (timepoint 48, L): 0.09401
- UL94 (P16800) protein level (timepoint 48, L): 0.1811
- UL99 (P13200) protein level (timepoint 48, L): 0.09897
- UL103 (P16734) protein level (timepoint 48, L): 0.1489
- UL117 (P16770) protein level (timepoint 48, L): 0.4909
- gL (P16832) protein level (timepoint 48, L): 0.05817
- gM (P16733) protein level (timepoint 48, L): 0.04711
- gN (P16795) protein level (timepoint 48, L): 0.08482
- DUT (P16824) protein level (timepoint 48, LL): 0.2262
- IR12 (P16810) protein level (timepoint 48, LL): 0.2614
- TRM3 (P16732) protein level (timepoint 48, LL): 0.02426
- TRX1 (P16783) protein level (timepoint 48, LL): 0.01259
- TRX2 (P16728) protein level (timepoint 48, LL): 0.01003
- UL24 (P16760) protein level (timepoint 48, LL): 0.1046
- UL40 (P16780) protein level (timepoint 48, LL): 1.098
- UL47 (P16784) protein level (timepoint 48, LL): 0.04257
- UL49 (P16786) protein level (timepoint 48, LL): 0.91
- UL69 (P16749) protein level (timepoint 48, LL): 0.3024
- UL70 (P17149) protein level (timepoint 48, LL): 0.5546
- UL83 (P06725) protein level (timepoint 48, LL): 0.03671
- UL132 (P69338) protein level (timepoint 48, LL): 0.2027
- US15 (P09718) protein level (timepoint 48, LL): 1.334
- CVC2 (P16726) protein level (timepoint 72, DE): 0.05308
- DBP (P17147) protein level (timepoint 72, DE): 0.2031
- HELI (P16736) protein level (timepoint 72, DE): 0.7626
- IR01 (P09710) protein level (timepoint 72, DE): 0.4495
- NEC2 (P16791) protein level (timepoint 72, DE): 0.231
- RIR1 (P16782) protein level (timepoint 72, DE): 0.1696
- TRM1 (P16724) protein level (timepoint 72, DE): 0.1736
- UL4 (P17146) protein level (timepoint 72, DE): 0.1863
- UL26 (P16762) protein level (timepoint 72, DE): 0.087
- UL32 (P08318) protein level (timepoint 72, DE): 0.09834
- UL34 (P16812) protein level (timepoint 72, DE): 0.1945
- UL35 (P16766) protein level (timepoint 72, DE): 0.0668
- UL38 (P16779) protein level (timepoint 72, DE): 0.6571
- UL44 (P16790) protein level (timepoint 72, DE): 0.1077
- UL48 (P16785) protein level (timepoint 72, DE): 0.0769
- UL54 (P08546) protein level (timepoint 72, DE): 0.8921
- UL71 (P16823) protein level (timepoint 72, DE): 0.4201
- UL78 (P16751) protein level (timepoint 72, DE): 0.4371
- UL84 (P16727) protein level (timepoint 72, DE): 0.1807
- UL95 (P16801) protein level (timepoint 72, DE): 0.4887
- UL96 (P16787) protein level (timepoint 72, DE): 0.2804
- UL97 (P16788) protein level (timepoint 72, DE): 0.2884
- UL98 (P16789) protein level (timepoint 72, DE): 0.2614
- UL102 (P16827) protein level (timepoint 72, DE): 1.1
- UL104 (P16735) protein level (timepoint 72, DE): 0.1108
- UL112/UL113 (P17151) protein level (timepoint 72, DE): 0.3912
- UL114 (P16769) protein level (timepoint 72, DE): 1.097
- UL119/UL118 (P16739) protein level (timepoint 72, DE): 0.2241
- UL128 (P16837) protein level (timepoint 72, DE): 0.03713
- US8 (P09730) protein level (timepoint 72, DE): 1.041
- US9 (P09729) protein level (timepoint 72, DE): 1.966
- US12 (P09721) protein level (timepoint 72, DE): 0.2709
- US13 (P09720) protein level (timepoint 72, DE): 0.5064
- US14 (P09719) protein level (timepoint 72, DE): 0.1413
- US22 (P09722) protein level (timepoint 72, DE): 0.5654
- US23 (P09701) protein level (timepoint 72, DE): 0.5216
- US24 (P09700) protein level (timepoint 72, DE): 0.3422
- gB (P06473) protein level (timepoint 72, DE): 0.2078
- IRS1 (P09715) protein level (timepoint 72, IE): 1.155
- TRS1 (P09695) protein level (timepoint 72, IE): 1.081
- UL13 (P16755) protein level (timepoint 72, IE): 0.4777
- UL36 (P16767) protein level (timepoint 72, IE): 0.8125
- UL37 (P16778) protein level (timepoint 72, IE): 0.998
- UL122 (P19893) protein level (timepoint 72, IE): 0.0988
- UL123 (P13202) protein level (timepoint 72, IE): 0.8573
- CVC1 (P16799) protein level (timepoint 72, L): 0.4295
- GO (P16750) protein level (timepoint 72, L): 0.03881
- IR11 (P16809) protein level (timepoint 72, L): 0.253
- MCP (P16729) protein level (timepoint 72, L): 0.01144
- SCP (Q7M6N6) protein level (timepoint 72, L): 0.004632
- TRM2 (P16792) protein level (timepoint 72, L): 0.02287
- UL22A (P16845) protein level (timepoint 72, L): 0.2623
- UL25 (P16761) protein level (timepoint 72, L): 0.1265
- UL29 (P16764) protein level (timepoint 72, L): 0.4756
- UL30 (P16765) protein level (timepoint 72, L): 0.1344
- UL31 (P16848) protein level (timepoint 72, L): 0.3595
- UL43 (P16781) protein level (timepoint 72, L): 0.07284
- UL52 (P16793) protein level (timepoint 72, L): 0.1143
- UL76 (P16725) protein level (timepoint 72, L): 0.0261
- UL80 (P16753) protein level (timepoint 72, L): 0.05404
- UL82 (P06726) protein level (timepoint 72, L): 0.2813
- UL87 (P16730) protein level (timepoint 72, L): 0.03862
- UL88 (P16731) protein level (timepoint 72, L): 0.1555
- UL94 (P16800) protein level (timepoint 72, L): 0.2402
- UL99 (P13200) protein level (timepoint 72, L): 0.1374
- UL103 (P16734) protein level (timepoint 72, L): 0.1294
- UL117 (P16770) protein level (timepoint 72, L): 0.3032
- gH (P12824) protein level (timepoint 72, L): 0.1717
- gL (P16832) protein level (timepoint 72, L): 0.07772
- gM (P16733) protein level (timepoint 72, L): 0.06954
- gN (P16795) protein level (timepoint 72, L): 0.07119
- IR12 (P16810) protein level (timepoint 72, LL): 0.182
- TRM3 (P16732) protein level (timepoint 72, LL): 0.02749
- TRX1 (P16783) protein level (timepoint 72, LL): 0.01995
- TRX2 (P16728) protein level (timepoint 72, LL): 0.01998
- UL24 (P16760) protein level (timepoint 72, LL): 0.1072
- UL40 (P16780) protein level (timepoint 72, LL): 0.6851
- UL47 (P16784) protein level (timepoint 72, LL): 0.08828
- UL49 (P16786) protein level (timepoint 72, LL): 1.209
- UL69 (P16749) protein level (timepoint 72, LL): 0.3758
- UL70 (P17149) protein level (timepoint 72, LL): 0.682
- UL83 (P06725) protein level (timepoint 72, LL): 0.03846
- UL132 (P69338) protein level (timepoint 72, LL): 0.215
- US15 (P09718) protein level (timepoint 72, LL): 0.6869
